Consider 21 molecules from patent US7981903B2, “2-[2-{phenylamino}-1H-pyrrolo[2,3-D]pyrimidin-4-yl)amino] benzamide derivatives as IGF-1R inhibitors for the treatment of cancer” (GlaxoSmithKline LLC, priority 2007, dated 2011).

The IC50 is the point on the concentration scale where inhibition reaches its midpoint. A lower IC50 goes with greater potency.

One experiment has as its target ALK (Homo sapiens, UniProt Q9UM73). The experiment is described as follows: ALK enzyme assay (HTRF). The format is biochemical. As to conditions: 0.25 nM ALK, 15.0 μM ATP, values given as pIC50 category. Summed up: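 Final compound range 0.00017 to 10 μM (twelve 1:3 dilutions). Kinase reaction with ATP and biotinylated synthetic peptide runs 120 min at 20° C, stopped with EDTA; phosphotyrosine detected by HTRF after 60 min. Inhibition referenced to DMSO (1%) and EDTA (0.1 M) controls, curve-fitted.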

For the next experiment, the system named is Colo205. As to the kind of experiment: Inhibition of cell proliferation (CellTiter-Glo or InCell analyzer), Colo205. Format: cell-based. As to conditions: Homo sapiens, COLO 205, 72 h / 3 days, values given as IC50 category. The method in brief: In one
In general terms: Cellular ATP, detected with luciferase, serves as a proxy for viable cell number.

The target in experiment [1] is T1, NIH-3T3 cells overexpressing human IR (Homo sapiens, UniProt P06213).
T1 construct: expressed in transfected cells; host or cells: NIH-3T3 (mouse fibroblasts)
As to the kind of experiment: IR cellular autophosphorylation (DELFIA). The format is cell-based. As to conditions: 2 h compound, insulin 3 ug/ml for 15 minutes, IC50 category. The method in brief:
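Receptor autophosphorylation measured by DELFIA, capturing IGF-1R or IRβ and detecting with europium anti-pTyr, reported as percent of IGF-1- or insulin-stimulated signal. Compounds (30 uM to 1.5 nM) added 2 h before ligand, then 15 min stimulation (IGF-1 30 ng/ml or insulin 3 ug/ml).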

Bounds are passed on as bounds.

T1 sequence (P06213 28-1382): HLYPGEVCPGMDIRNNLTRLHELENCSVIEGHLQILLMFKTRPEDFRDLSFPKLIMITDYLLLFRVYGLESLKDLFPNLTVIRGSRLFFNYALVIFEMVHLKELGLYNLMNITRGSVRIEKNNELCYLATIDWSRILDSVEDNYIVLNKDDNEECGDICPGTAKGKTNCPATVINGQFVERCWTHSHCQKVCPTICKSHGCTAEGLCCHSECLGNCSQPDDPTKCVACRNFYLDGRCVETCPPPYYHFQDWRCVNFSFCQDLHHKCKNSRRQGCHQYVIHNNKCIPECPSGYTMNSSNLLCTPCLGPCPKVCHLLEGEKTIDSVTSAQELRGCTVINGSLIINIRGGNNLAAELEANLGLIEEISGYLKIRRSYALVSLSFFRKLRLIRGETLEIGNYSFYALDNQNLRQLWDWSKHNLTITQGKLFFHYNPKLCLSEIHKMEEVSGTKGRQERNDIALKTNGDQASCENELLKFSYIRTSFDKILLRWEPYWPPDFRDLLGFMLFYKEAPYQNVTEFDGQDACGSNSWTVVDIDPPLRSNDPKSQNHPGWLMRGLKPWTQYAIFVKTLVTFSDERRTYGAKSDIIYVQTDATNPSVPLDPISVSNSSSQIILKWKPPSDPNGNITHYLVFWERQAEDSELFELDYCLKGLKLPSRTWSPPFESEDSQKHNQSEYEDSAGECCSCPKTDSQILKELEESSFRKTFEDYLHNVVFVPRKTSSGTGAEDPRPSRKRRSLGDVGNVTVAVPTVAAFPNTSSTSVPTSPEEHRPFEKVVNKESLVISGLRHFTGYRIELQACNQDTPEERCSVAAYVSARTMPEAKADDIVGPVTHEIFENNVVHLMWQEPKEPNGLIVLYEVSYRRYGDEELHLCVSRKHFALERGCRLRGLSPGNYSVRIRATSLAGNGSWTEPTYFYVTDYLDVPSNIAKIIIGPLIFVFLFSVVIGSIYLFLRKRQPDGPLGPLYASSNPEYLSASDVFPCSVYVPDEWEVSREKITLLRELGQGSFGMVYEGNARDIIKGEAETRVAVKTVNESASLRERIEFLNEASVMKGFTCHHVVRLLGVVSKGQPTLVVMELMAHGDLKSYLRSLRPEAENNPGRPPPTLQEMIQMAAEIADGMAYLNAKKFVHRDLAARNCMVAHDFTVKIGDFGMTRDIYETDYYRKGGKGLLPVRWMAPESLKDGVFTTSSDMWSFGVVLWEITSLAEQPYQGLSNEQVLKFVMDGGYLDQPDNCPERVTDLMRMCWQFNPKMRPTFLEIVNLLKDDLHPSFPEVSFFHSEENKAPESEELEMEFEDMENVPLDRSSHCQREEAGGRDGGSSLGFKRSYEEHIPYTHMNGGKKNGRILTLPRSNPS
Chain of ALK (Q9UM73 19-1620): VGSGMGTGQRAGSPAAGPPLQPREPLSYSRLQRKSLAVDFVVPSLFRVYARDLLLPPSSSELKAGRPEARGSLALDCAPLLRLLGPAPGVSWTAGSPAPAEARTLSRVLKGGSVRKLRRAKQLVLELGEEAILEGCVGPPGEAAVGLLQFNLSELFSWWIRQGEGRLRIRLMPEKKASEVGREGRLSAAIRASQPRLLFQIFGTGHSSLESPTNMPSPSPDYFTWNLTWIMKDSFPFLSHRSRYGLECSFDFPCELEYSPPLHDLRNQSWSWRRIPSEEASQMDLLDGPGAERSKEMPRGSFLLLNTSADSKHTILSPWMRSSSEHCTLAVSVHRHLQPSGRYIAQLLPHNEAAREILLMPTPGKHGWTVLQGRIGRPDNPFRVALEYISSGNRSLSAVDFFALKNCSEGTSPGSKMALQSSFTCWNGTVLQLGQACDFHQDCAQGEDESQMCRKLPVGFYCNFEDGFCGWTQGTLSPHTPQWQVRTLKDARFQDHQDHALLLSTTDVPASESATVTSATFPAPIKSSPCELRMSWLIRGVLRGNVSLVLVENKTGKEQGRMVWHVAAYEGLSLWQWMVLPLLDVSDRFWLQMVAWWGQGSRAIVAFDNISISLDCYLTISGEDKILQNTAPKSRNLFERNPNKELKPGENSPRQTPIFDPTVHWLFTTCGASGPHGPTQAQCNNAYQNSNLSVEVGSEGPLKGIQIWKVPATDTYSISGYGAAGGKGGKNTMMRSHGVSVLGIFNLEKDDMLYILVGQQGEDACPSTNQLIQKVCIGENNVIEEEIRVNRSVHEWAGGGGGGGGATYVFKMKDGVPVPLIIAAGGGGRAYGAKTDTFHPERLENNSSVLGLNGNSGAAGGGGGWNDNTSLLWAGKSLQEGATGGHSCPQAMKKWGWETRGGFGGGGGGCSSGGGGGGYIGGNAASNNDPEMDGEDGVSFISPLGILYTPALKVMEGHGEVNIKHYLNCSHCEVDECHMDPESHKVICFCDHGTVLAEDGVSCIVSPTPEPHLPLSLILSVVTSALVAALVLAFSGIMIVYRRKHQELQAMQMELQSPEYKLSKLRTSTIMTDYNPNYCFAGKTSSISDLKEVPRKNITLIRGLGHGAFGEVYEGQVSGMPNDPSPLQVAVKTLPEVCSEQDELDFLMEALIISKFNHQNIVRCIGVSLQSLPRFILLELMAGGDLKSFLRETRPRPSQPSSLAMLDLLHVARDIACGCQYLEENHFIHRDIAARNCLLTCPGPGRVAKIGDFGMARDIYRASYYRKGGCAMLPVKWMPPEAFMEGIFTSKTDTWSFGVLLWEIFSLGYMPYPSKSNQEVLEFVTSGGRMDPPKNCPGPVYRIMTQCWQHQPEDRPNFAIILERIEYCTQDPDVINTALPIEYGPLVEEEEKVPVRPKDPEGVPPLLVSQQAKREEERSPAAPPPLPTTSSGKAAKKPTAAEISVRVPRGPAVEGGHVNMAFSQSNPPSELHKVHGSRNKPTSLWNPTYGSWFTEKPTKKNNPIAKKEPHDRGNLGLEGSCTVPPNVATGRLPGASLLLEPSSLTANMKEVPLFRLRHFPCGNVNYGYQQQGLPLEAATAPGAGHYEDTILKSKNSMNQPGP

For `CNC(=O)c1c(F)cccc1Nc1nc(Nc2cc3c(cc2OC)CCN(C(C)C)C3)nc2[nH]ccc12` [Example 235, 2-fluoro-N-methyl-6-[(2-{[2-(1-methylethyl)-6-(methyloxy)-1,2,3,4-tetrahydro-7-isoquinolinyl]amino}-1H-pyrrolo[2,3-d]pyrimidin-4-yl)amino]benzamide], the IC50 on ALK is 1.26 to 3.98 nM; in the experiment on Colo205, greater than 1000 nM; in experiment [1], greater than 500 nM.
The matching figures for `CNC(=O)c1c(F)cccc1Nc1nc(Nc2cc3c(cc2OC)CCC(=O)N3)nc2[nH]ccc12` [Example 222, 2-fluoro-N-methyl-6-[(2-{[6-(methyloxy)-2-oxo-1,2,3,4-tetrahydro-7-quinolinyl]amino}-1H-pyrrolo[2,3-d]pyrimidin-4-yl)amino]benzamide]: 5.01 to 200 nM, greater than 1000 nM and greater than 500 nM.
In the same order, the values of `COc1cc2c(cc1Nc1nc(Nc3cc(F)cc(F)c3C(N)=O)c3cc[nH]c3n1)NCCC2` [Example 220, 2,4-difluoro-6-[(2-{[6-(methyloxy)-1,2,3,4-tetrahydro-7-quinolinyl]amino}-1H-pyrrolo[2,3-d]pyrimidin-4-yl)amino]benzamide] are 5.01 to 200 nM, greater than 1000 nM and greater than 500 nM.
On to `COc1cc2c(cc1Nc1nc(Nc3cccc(F)c3C(N)=O)c3cc[nH]c3n1)N(C(=O)CCN(C)C)CC2` [Example 118, 2-[(2-{[1-(N,N-dimethyl-b-alanyl)-5-(methyloxy)-2,3-dihydro-1H-indol-6-yl]amino}-1H-pyrrolo[2,3-d]pyrimidin-4-yl)amino]-6-fluorobenzamide], for which the figures for the half-maximal inhibitory concentration (IC50) (against ALK; in the experiment on Colo205; in experiment [1]) were 5.01 to 200 nM, 250 to 1000 nM and greater than 500 nM, respectively.
The matching figures for `COc1cc2c(cc1Nc1nc(Nc3cccc(F)c3C(N)=O)c3cc(C)[nH]c3n1)N(C(=O)CN(C)C)CC2` [Example 262, 2-[(2-{[1-(N,N-dimethylglycyl)-5-(methyloxy)-2,3-dihydro-1H-indol-6-yl]amino}-6-methyl-1H-pyrrolo[2,3-d]pyrimidin-4-yl)amino]-6-fluorobenzamide]: 5.01 to 200 nM, greater than 1000 nM and 100 to 500 nM.
As for `COc1cc(N2CCC(N3CCOCC3)CC2)ccc1Nc1nc(Nc2cc(F)ccc2C(N)=O)c2cc[nH]c2n1` [Example 78, 4-fluoro-2-{[2-({2-(methyloxy)-4-[4-(4-morpholinyl)-1-piperidinyl]phenyl}amino)-1H-pyrrolo[2,3-d]pyrimidin-4-yl]amino}benzamide], the half-inhibitory concentration (IC50) on ALK is 0.251 to 1 nM; in the experiment with Colo205, 250 to 1000 nM; in experiment [1] it was 100 to 500 nM.
In the same order, the values of `CCCN1CCC=C(c2ccc(Nc3nc(Nc4ccccc4C(N)=O)c4cc[nH]c4n3)c(OC)c2)C1` [Example 2, 2-[(2-{[2-(methyloxy)-4-(1-propyl-1,2,5,6-tetrahydro-3-pyridinyl)phenyl]amino}-1H-pyrrolo[2,3-d]pyrimidin-4-yl)amino]benzamide] are 0.251 to 1 nM, less than 250 nM and 100 to 500 nM.
As to `COc1cc2c(cc1Nc1nc(Nc3cccc(F)c3C(N)=O)c3cc[nH]c3n1)CN(CCCN(C)C)CC2` [Example 232, 2-[(2-{[2-[3-(dimethylamino)propyl]-6-(methyloxy)-1,2,3,4-tetrahydro-7-isoquinolinyl]amino}-1H-pyrrolo[2,3-d]pyrimidin-4-yl)amino]-6-fluorobenzamide], the IC50 on ALK was 1.26 to 3.98 nM; with Colo205, greater than 1000 nM; in experiment [1], greater than 500 nM.
In the same order, the values of `COc1cc(N2CCN(S(C)(=O)=O)CC2)ccc1Nc1nc(Nc2cccc(F)c2C(N)=O)c2cc[nH]c2n1` [Example 204, 2-fluoro-6-{[2-({2-(methyloxy)-4-[4-(methylsulfonyl)-1-piperazinyl]phenyl}amino)-1H-pyrrolo[2,3-d]pyrimidin-4-yl]amino}benzamide] are 0.251 to 1 nM, less than 250 nM and greater than 500 nM.
In the same order, the values of `CCCN(CCC)[C@@H](C)C(=O)N1CCc2cc(OC)c(Nc3nc(Nc4cccc(F)c4C(=O)NC)c4cc[nH]c4n3)cc21` [Example 191, 2-[(2-{[1-(N,N-dipropyl-L-alanyl)-5-(methyloxy)-2,3-dihydro-1H-indol-6-yl]amino}-1H-pyrrolo[2,3-d]pyrimidin-4-yl)amino]-6-fluoro-N-methylbenzamide] are 5.01 to 200 nM, greater than 1000 nM and greater than 500 nM.
The matching figures for `COCC(=O)N1CCc2cc(OC)c(Nc3nc(Nc4cccc(F)c4C(N)=O)c4cc[nH]c4n3)cc21` [Example 149, 2-fluoro-6-{[2-({5-(methyloxy)-1-[(methyloxy)acetyl]-2,3-dihydro-1H-indol-6-yl}amino)-1H-pyrrolo[2,3-d]pyrimidin-4-yl]amino}benzamide]: 5.01 to 200 nM, greater than 1000 nM and 100 to 500 nM.
With `COc1cc2c(cc1Nc1nc(Nc3cc(Cl)cc(F)c3C(N)=O)c3cc[nH]c3n1)N(C(=O)CN(C)C)CC2` [Example 119, 4-chloro-2-[(2-{[1-(N,N-dimethylglycyl)-5-(methyloxy)-2,3-dihydro-1H-indol-6-yl]amino}-1H-pyrrolo[2,3-d]pyrimidin-4-yl)amino]-6-fluorobenzamide], the IC50 at ALK is 1.26 to 3.98 nM; in the experiment on Colo205 it was 250 to 1000 nM; in experiment [1], less than 100 nM.
In the same order, the values of `COc1cc2c(cc1Nc1nc(Nc3cccc(F)c3C(N)=O)c3cc[nH]c3n1)N(C(=O)CCN(C)C)CCC2` [Example 214, 2-[(2-{[1-(N,N-dimethyl-β-alanyl)-6-(methyloxy)-1,2,3,4-tetrahydro-7-quinolinyl]amino}-1H-pyrrolo[2,3-d]pyrimidin-4-yl)amino]-6-fluorobenzamide] are 5.01 to 200 nM, 250 to 1000 nM and 100 to 500 nM.
The matching figures for `CCN(C)CC(=O)N1CCc2cc(OC)c(Nc3nc(Nc4cccc(F)c4C(=O)NC)c4cc[nH]c4n3)cc21` [Example 165, 2-[(2-{[1-(N-ethyl-N-methylglycyl)-5-(methyloxy)-2,3-dihydro-1H-indol-6-yl]amino}-1H-pyrrolo[2,3-d]pyrimidin-4-yl)amino]-6-fluoro-N-methylbenzamide]: 1.26 to 3.98 nM, greater than 1000 nM and 100 to 500 nM.
Turning to `CCN(C)CC(=O)N1CCCc2cc(OC)c(Nc3nc(Nc4cccc(F)c4C(=O)NC)c4cc[nH]c4n3)cc21` [Example 132, 2-[(2{-[1-(N-ethyl-N-methylglycyl)-6-(methyloxy)-1,2,3,4-tetrahydro-7-quinolinyl]amino}-1H-pyrrolo[2,3-d]pyrimidin-4-yl)amino]-6-fluoro-N-methylbenzamide], the IC50 against ALK was 5.01 to 200 nM; in the experiment on Colo205, less than 250 nM; in experiment [1] it was less than 100 nM.
In the case of `CNC(=O)c1c(F)cccc1Nc1nc(Nc2cc3c(cc2OC)CCCN3C(=O)CCN(C)C)nc2[nH]ccc12` [Example 213, 2-[(2-{[1-(N,N-dimethyl-β-alanyl)-6-(methyloxy)-1,2,3,4-tetrahydro-7-quinolinyl]amino}-1H-pyrrolo[2,3-d]pyrimidin-4-yl)amino]-6-fluoro-N-methylbenzamide], the IC50 on ALK is 5.01 to 200 nM; in the experiment with Colo205 it was greater than 1000 nM; in experiment [1], greater than 500 nM.
In the same order, the values of `COc1cc2c(cc1Nc1nc(Nc3cccc(F)c3C(N)=O)c3cc[nH]c3n1)N(C(=O)[C@@H]1CCCN1C)CC2` [Example 147, 2-fluoro-6-[(2-{[5-(methyloxy)-1-(1-methyl-L-prolyl)-2,3-dihydro-1H-indol-6-yl]amino}-1H-pyrrolo[2,3-d]pyrimidin-4-yl)amino]benzamide] are 5.01 to 200 nM, 250 to 1000 nM and 100 to 500 nM.
In the same order, the values of `CNC(=O)c1c(F)cc(F)cc1Nc1nc(Nc2cc3c(cc2OC)CCN3C(=O)CN(C)C)nc2[nH]ccc12` [Example 190, 2-[(2-{[1-(N,N-dimethylglycyl)-5-(methyloxy)-2,3-dihydro-1H-indol-6-yl]amino}-1H-pyrrolo[2,3-d]pyrimidin-4-yl)amino]-4,6-difluoro-N-methylbenzamide] are 0.251 to 1 nM, 250 to 1000 nM and less than 100 nM.
The matching figures for `COc1ccc(OC[C@@H](O)CN(C)C)cc1Nc1nc(Nc2cc(F)ccc2C(N)=O)c2cc[nH]c2n1` [Example 86, 2-[(2-{[5-{[(2S)-3-(dimethylamino)-2-hydroxypropyl]oxy}-2-(methyloxy)phenyl]amino}-1H-pyrrolo[2,3-d]pyrimidin-4-yl)amino]-4-fluorobenzamide]: 0.251 to 1 nM, less than 250 nM and greater than 500 nM.
Turning to `CNC(=O)c1c(F)cccc1Nc1nc(Nc2cc3c(cc2OC)CCCN3C(=O)[C@@H]2CCCN2C)nc2[nH]ccc12` [Example 202, 2-fluoro-N-methyl-6-[(2-{[6-(methyloxy)-1-(1-methyl-L-prolyl)-1,2,3,4-tetrahydro-7-quinolinyl]amino}-1H-pyrrolo[2,3-d]pyrimidin-4-yl)amino]benzamide], the figures for the IC50 (at ALK; in the experiment with Colo205; in experiment [1]) were 5.01 to 200 nM, 250 to 1000 nM and 100 to 500 nM, respectively.
In the same order, the values of `COc1ccc(NC(=O)CN(C)C)cc1Nc1nc(Nc2cccc(F)c2C(N)=O)c2cc[nH]c2n1` [Example 244, 2-[(2-{[5-[(N,N-dimethylglycyl)amino]-2-(methyloxy)phenyl]amino}-1H-pyrrolo[2,3-d]pyrimidin-4-yl)amino]-6-fluorobenzamide] are 0.251 to 1 nM, less than 250 nM and less than 100 nM.
